We go through 1 compound from ChEMBL document CHEMBL3112438, “Structure-based optimization of cyclopropyl urea derivatives as potent soluble epoxide hydrolase inhibitors for potential decrease of renal injury without hypotensive action” (Bioorg Med Chem, 2014).

One data set addresses T1, Cytochrome P450 2C8 (Homo sapiens, UniProt P10632).
T1 sequence (P10632 whole entry): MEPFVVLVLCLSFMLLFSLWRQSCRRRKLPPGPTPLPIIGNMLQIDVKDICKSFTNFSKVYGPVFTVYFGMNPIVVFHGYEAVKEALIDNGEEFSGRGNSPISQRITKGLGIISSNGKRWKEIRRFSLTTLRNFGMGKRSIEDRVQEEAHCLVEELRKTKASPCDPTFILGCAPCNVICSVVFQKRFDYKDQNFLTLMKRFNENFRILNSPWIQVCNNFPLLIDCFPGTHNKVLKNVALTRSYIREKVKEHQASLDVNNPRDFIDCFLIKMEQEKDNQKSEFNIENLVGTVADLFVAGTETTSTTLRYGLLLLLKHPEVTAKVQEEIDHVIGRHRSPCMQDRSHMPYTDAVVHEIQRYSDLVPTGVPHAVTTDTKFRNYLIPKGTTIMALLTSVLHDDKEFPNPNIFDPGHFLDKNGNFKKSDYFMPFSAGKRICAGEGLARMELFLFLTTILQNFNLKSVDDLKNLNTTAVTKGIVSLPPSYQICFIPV
As to the kind of experiment: Inhibition of CYP2C8 in human liver microsomes after 10 mins by mechanism-based assay. Format: ADME. For orientation: Microsomes from liver hold many membrane-bound enzymes, among them those of drug oxidation.

The test system of data set [1] is Liver microsome. As to the kind of experiment: Intrinsic clearance in rat liver microsomes measured per mg of protein at 1 uM after 30 mins by LC/MS/MS analysis. It is filed as ADME. To be noted: 0.5 h.
A short description of data set [2]: Aqueous solubility of the compound at pH 7.4 after 90 mins. Format: physicochemical.
Data set [3] deals with T2, Bifunctional epoxide hydrolase 2 (Rattus norvegicus, UniProt P80299).
T2 sequence (P80299 whole entry): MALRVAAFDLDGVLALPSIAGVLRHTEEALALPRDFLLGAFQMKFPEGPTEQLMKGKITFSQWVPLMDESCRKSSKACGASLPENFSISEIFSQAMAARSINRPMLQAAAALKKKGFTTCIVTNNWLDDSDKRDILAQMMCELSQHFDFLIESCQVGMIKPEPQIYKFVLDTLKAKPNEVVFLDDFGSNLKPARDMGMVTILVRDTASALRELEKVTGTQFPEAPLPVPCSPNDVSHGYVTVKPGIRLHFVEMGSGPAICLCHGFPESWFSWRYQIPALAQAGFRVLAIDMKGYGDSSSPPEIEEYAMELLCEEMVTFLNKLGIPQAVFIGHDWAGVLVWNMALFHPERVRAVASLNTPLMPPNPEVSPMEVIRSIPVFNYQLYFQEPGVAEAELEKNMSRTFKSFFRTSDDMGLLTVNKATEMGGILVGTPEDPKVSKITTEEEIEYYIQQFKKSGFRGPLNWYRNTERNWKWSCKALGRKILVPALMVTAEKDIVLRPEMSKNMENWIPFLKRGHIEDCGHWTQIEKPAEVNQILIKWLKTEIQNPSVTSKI
The experiment in a line: Inhibition of rat recombinant soluble epoxide hydrolase after 1 hr by fluorescence assay.

Data set [4] concerns Liver microsome. The experiment in a line: Intrinsic clearance in human liver microsomes measured per mg of protein at 1 uM after 30 mins by LC/MS/MS analysis. It is filed as ADME. To be noted: 0.5 h.
Another data set concerns the target Cytochrome P450 2C19 (Homo sapiens, UniProt P33261). As to the kind of experiment: Inhibition of CYP2C19 in human liver microsomes after 10 mins by mechanism-based assay. It is filed as ADME.

Each structure is given as a SMILES string. In brackets after ≈: the same amount, converted by molar mass.

Chain of Cytochrome P450 2C19 (P33261 whole entry): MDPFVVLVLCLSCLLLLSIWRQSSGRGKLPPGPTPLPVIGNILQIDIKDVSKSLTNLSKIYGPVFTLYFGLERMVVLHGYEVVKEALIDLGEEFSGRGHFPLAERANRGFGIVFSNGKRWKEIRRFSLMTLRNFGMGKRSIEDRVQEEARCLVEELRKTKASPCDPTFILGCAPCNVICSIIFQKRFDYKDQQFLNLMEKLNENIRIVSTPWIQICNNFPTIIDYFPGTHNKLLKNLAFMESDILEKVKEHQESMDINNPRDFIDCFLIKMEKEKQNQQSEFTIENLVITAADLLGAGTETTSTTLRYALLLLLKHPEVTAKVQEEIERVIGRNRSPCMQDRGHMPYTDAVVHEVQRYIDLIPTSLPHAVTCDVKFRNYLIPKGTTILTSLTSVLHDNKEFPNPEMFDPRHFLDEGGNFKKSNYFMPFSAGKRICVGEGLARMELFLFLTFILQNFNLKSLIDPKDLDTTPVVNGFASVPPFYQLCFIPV

`CC(C)c1noc(C2CCN(C(=O)N[C@H]3C[C@@H]3c3ccccc3)CC2)n1` (relative stereo): the “inhibition (INH)” value on Cytochrome P450 2C8 and against Cytochrome P450 2C19 was “Active” in each case. For the same compound, the CLint in the data set on Liver microsome [1] was 79 µL/min/mg; in the data set on Liver microsome [4], below 10 µL/min/mg. The same compound returned a solubility at 1.5 h in data set [2] of 41 µg/mL (≈ 116 µM). Moreover, in data set [3], the IC50 was found to be 8.3 nM.

A word on the solubility: it is how much of the substance goes into solution per volume. Low readings indicate a poorly soluble substance, high ones a readily soluble substance. Broadly, the IC50 is the concentration at which inhibition is half-maximal.
